From ChEMBL document CHEMBL1121623, “Thrombin inhibitors. 3. Carboxyl-containing amide derivatives of N alpha-substituted L-arginine” (J Med Chem, 1980)

Target: T1, Prothrombin (Bos taurus, UniProt P00735)
Test: (§1) Concentration at which the clotting time was prolonged by twice that of the control by inhibiting thrombin
Type: functional
Conditions: read-out: I50

Row | IC50 | Compound
1 | 500 nM | CCCC1CCN(C(=O)C(CCCN=C(N)N)NS(=O)(=O)c2ccc3cc(OC)c(OC)cc3c2)C(C(=O)O)C1 (stereo unspecified)
2 | 150 nM | CC1CCN(C(=O)C(CCCN=C(N)N)NS(=O)(=O)c2cccc3c2oc2ccccc23)C(C(=O)O)C1 (stereo unspecified)
3 | 250 nM | CCC1CCN(C(=O)C(CCCN=C(N)N)NS(=O)(=O)c2ccc3cc(OC)c(OC)cc3c2)C(C(=O)O)C1 (stereo unspecified)
4 | 250 nM | CC1CCN(C(=O)C(CCCN=C(N)N)NS(=O)(=O)c2ccc3c(c2)Sc2ccccc2O3)C(C(=O)O)C1 (stereo unspecified)
5 | 12000 nM | COc1cc2ccc(S(=O)(=O)NC(CCCN=C(N)N)C(=O)N3CCC(c4ccccc4)CC3C(=O)O)cc2cc1OC (stereo unspecified)
6 | 300 nM | CCCCN(CC(=O)O)C(=O)C(CCCN=C(N)N)NS(=O)(=O)c1ccc2oc3ccccc3c2c1 (stereo unspecified)
7 | 1500 nM | COc1cc2ccc(S(=O)(=O)NC(CCCN=C(N)N)C(=O)N3Cc4ccccc4C3C(=O)O)cc2cc1OC (stereo unspecified)
8 | 32000 nM | COCCN(CC(=O)O)C(=O)C(CCCN=C(N)N)NS(=O)(=O)c1ccc2c(c1)OCCO2 (stereo unspecified)
9 | 57000 nM | COCCN(CC(=O)O)C(=O)C(CCCN=C(N)N)NS(=O)(=O)c1ccc2cc3c(cc2c1)OCCO3 (stereo unspecified)
10 | 100000 nM | CCCCCN(CC(=O)O)C(=O)C(CCCN=C(N)N)NS(=O)(=O)c1cccc2c1CCCC2 (stereo unspecified)
11 | 400 nM | COCCN(CC(=O)O)C(=O)C(CCCN=C(N)N)NS(=O)(=O)c1ccc2c(c1)-c1ccccc1C2 (stereo unspecified)
12 | 450 nM | COCCN(CC(=O)O)C(=O)C(CCCN=C(N)N)NS(=O)(=O)c1ccc2sc3ccccc3c2c1 (stereo unspecified)
13 | 700 nM | COc1cc2ccc(S(=O)(=O)NC(CCCN=C(N)N)C(=O)N3CCc4ccccc4C3C(=O)O)cc2cc1OC (stereo unspecified)
14 | 10000 nM | COCCN(CC(=O)O)C(=O)C(CCCN=C(N)N)NS(=O)(=O)c1cccc2c1CCCC2 (stereo unspecified)
15 | 350 nM | COCCN(CC(=O)O)C(=O)C(CCCN=C(N)N)NS(=O)(=O)c1ccc2oc3ccccc3c2c1 (stereo unspecified)
16 | 20000 nM | CCCCN(CC(=O)O)C(=O)C(CCCN=C(N)N)NS(=O)(=O)c1cccc2c1CCCC2 (stereo unspecified)
17 | 350 nM | COCCN(CC(=O)O)C(=O)C(CCCN=C(N)N)NS(=O)(=O)c1ccc2c(c1)Sc1ccccc1O2 (stereo unspecified)
18 | 100 nM | CC1CCN(C(=O)C(CCCN=C(N)N)NS(=O)(=O)c2ccc3oc4ccccc4c3c2)C(C(=O)O)C1 (stereo unspecified)
19 | 60000 nM | CCCCN(CC(=O)O)C(=O)C(CCCN=C(N)N)NS(=O)(=O)c1ccc2c(c1)CCCC2 (stereo unspecified)
20 | 2500 nM | COc1ccc2ccc(S(=O)(=O)NC(CCCN=C(N)N)C(=O)N3CCCCCC3C(=O)O)cc2c1 (stereo unspecified)
21 | 6500 nM | N=C(N)NCCCC(NS(=O)(=O)c1cccc2c1CCCC2)C(=O)N(CC(=O)O)CC1CCCO1 (stereo unspecified)

Target: T1, Prothrombin
Test: as §1
Conditions: read-out: I50

Row | Compound | IC50
22 | COc1cc2ccc(S(=O)(=O)NC(CCCN=C(N)N)C(=O)N3CCC(C(=O)O)CC3)cc2cc1OC (stereo unspecified) | 150000 nM
23 | COc1ccc2cc(S(=O)(=O)NC(CCCN=C(N)N)C(=O)N3CCCCC3C(=O)O)ccc2c1 (stereo unspecified) | 100000 nM
24 | COCCN(CCCC(=O)O)C(=O)C(CCCN=C(N)N)NS(=O)(=O)c1ccc2cc(OC)c(OC)cc2c1 (stereo unspecified) | 40000 nM
25 | COc1cc2ccc(S(=O)(=O)NC(CCCN=C(N)N)C(=O)N3CCCC(C(=O)O)C3)cc2cc1OC (stereo unspecified) | 40000 nM
26 | COc1cc2ccc(S(=O)(=O)NC(CCCN=C(N)N)C(=O)N(C)CC(=O)O)cc2cc1OC (stereo unspecified) | > 100000 nM
27 | CCOc1cc2ccc(S(=O)(=O)NC(CCCN=C(N)N)C(=O)N(CCOC)CC(=O)O)cc2cc1OCC (stereo unspecified) | 15000 nM
28 | COc1cc2ccc(S(=O)(=O)NC(CCCN=C(N)N)C(=O)N3C(C(=O)O)CCCC3C(=O)O)cc2cc1OC (stereo unspecified) | > 100000 nM
29 | CCCCCCCCN(CC(=O)O)C(=O)C(CCCN=C(N)N)NS(=O)(=O)c1ccc2cc(OC)c(OC)cc2c1 (stereo unspecified) | > 100000 nM
30 | N=C(N)NCCCC(NS(=O)(=O)c1cccc2ccccc12)C(=O)N(CC(=O)O)CC1CCCO1 (stereo unspecified) | 30000 nM
31 | CCCCN(CC(=O)O)C(=O)C(CCCN=C(N)N)NS(=O)(=O)c1ccc2ccccc2c1 (stereo unspecified) | > 100000 nM
32 | CC(C)C1CCN(C(=O)C(CCCN=C(N)N)NS(=O)(=O)c2ccc3ccccc3c2)C(C(=O)O)C1 (stereo unspecified) | 50000 nM
33 | COCCN(CC(=O)O)C(=O)C(CCCN=C(N)N)NS(=O)(=O)c1cccc2ccccc12 (stereo unspecified) | 30000 nM
34 | COc1cc2ccc(S(=O)(=O)NC(CCCN=C(N)N)C(=O)N(CC(=O)O)C3CCCCCC3)cc2cc1OC (stereo unspecified) | 15000 nM
35 | CCCN(CC(=O)O)C(=O)C(CCCN=C(N)N)NS(=O)(=O)c1ccc2cc(OC)c(OC)cc2c1 (stereo unspecified) | 8000 nM
36 | COCCN(CC(=O)O)C(=O)C(CCCN=C(N)N)NS(=O)(=O)c1cccc2cc(C)c(C)cc12 (stereo unspecified) | 10000 nM
37 | COc1cc2ccc(S(=O)(=O)NC(CCCN=C(N)N)C(=O)N(CC(=O)O)CC3CCCCC3)cc2cc1OC (stereo unspecified) | 15000 nM
38 | CCSCCN(CC(=O)O)C(=O)C(CCCN=C(N)N)NS(=O)(=O)c1ccc2cc(OC)c(OC)cc2c1 (stereo unspecified) | 5000 nM

Second part, the compound after the results:

Row | IC50 | Compound
39 | 4500 nM | COc1cc2ccc(S(=O)(=O)NC(CCCN=C(N)N)C(=O)N3CCCCC3C(=O)O)cc2cc1OC (stereo unspecified)
40 | 4000 nM | CCCCN(CC(=O)O)C(=O)C(CCCN=C(N)N)NS(=O)(=O)c1cccc2c(N(C)C)cccc12 (stereo unspecified)
41 | 2500 nM | COc1cc2ccc(S(=O)(=O)NC(CCCN=C(N)N)C(=O)N(CC(=O)O)Cc3ccccc3)cc2cc1OC (stereo unspecified)
42 | 350 nM | COCCN(CC(=O)O)C(=O)C(CCCN=C(N)N)NS(=O)(=O)c1ccc2ccc(C)cc2c1 (stereo unspecified)
43 | 400 nM | COc1cc2ccc(S(=O)(=O)NC(CCCN=C(N)N)C(=O)N3CCC(C)CC3C(=O)O)cc2cc1OC (stereo unspecified)
44 | 2000 nM | CCCCN(CC(=O)O)C(=O)C(CCCN=C(N)N)NS(=O)(=O)c1cc(OC)c2cc(OC)ccc2c1 (stereo unspecified)
45 | 2000 nM | COc1cc2ccc(S(=O)(=O)NC(CCCN=C(N)N)C(=O)N(CC(=O)O)CC(C)C)cc2cc1OC (stereo unspecified)
46 | 150 nM | CCCCCCN(CC(=O)O)C(=O)C(CCCN=C(N)N)NS(=O)(=O)c1ccc2cc(OC)c(OC)cc2c1 (stereo unspecified)
47 | 600 nM | CC1CCN(C(=O)C(CCCN=C(N)N)NS(=O)(=O)c2cccc3c2CCCC3)C(C(=O)O)C1 (stereo unspecified)
48 | 300 nM | COCCN(CC(=O)O)C(=O)C(CCCN=C(N)N)NS(=O)(=O)c1ccc2cc(OC)c(OC)cc2c1 (stereo unspecified)
49 | 1000 nM | CCCCCN(CC(=O)O)C(=O)C(CCCN=C(N)N)NS(=O)(=O)c1ccc2cc(OC)c(OC)cc2c1 (stereo unspecified)
50 | 500 nM | CCCCN(CC(=O)O)C(=O)C(CCCN=C(N)N)NS(=O)(=O)c1ccc2ccc(OC)cc2c1 (stereo unspecified)
51 | 4000 nM | CC1CCN(C(=O)C(CCCN=C(N)N)NS(=O)(=O)c2cccc3c(N(C)C)cccc23)C(C(=O)O)C1 (stereo unspecified)
52 | 350 nM | Cc1ccc2cc(S(=O)(=O)NC(CCCN=C(N)N)C(=O)N3CCC(C(C)C)CC3C(=O)O)ccc2c1 (stereo unspecified)
53 | 5000 nM | COCCCN(CC(=O)O)C(=O)C(CCCN=C(N)N)NS(=O)(=O)c1ccc2cc(OC)c(OC)cc2c1 (stereo unspecified)
54 | 4000 nM | CCOc1cc2ccc(S(=O)(=O)NC(CCCN=C(N)N)C(=O)N3CCC(C)CC3C(=O)O)cc2cc1OCC (stereo unspecified)
55 | 3000 nM | Cc1cc2ccc(S(=O)(=O)NC(CCCN=C(N)N)C(=O)N(CC(=O)O)CC3CCCO3)cc2cc1C (stereo unspecified)
56 | 100 nM | CC1CCN(C(=O)C(CCCN=C(N)N)NS(=O)(=O)c2ccc3c(c2)-c2ccccc2C3)C(C(=O)O)C1 (stereo unspecified)
57 | 3000 nM | COc1cc2ccc(S(=O)(=O)NC(CCCN=C(N)N)C(=O)N(CCc3ccccc3)CC(=O)O)cc2cc1OC (stereo unspecified)
58 | 500 nM | COCCN(CC(=O)O)C(=O)C(CCCN=C(N)N)NS(=O)(=O)c1ccc2ccc(OC)cc2c1 (stereo unspecified)
59 | 4000 nM | COCCN(CC(=O)O)C(=O)C(CCCN=C(N)N)NS(=O)(=O)c1cc(OC)c2cc(OC)ccc2c1 (stereo unspecified)
60 | 200 nM | COc1cc2ccc(S(=O)(=O)NC(CCCN=C(N)N)C(=O)N(CC(=O)O)CC3CCCO3)cc2cc1OC (stereo unspecified)

Row | IC50 | Compound
61 | 5000 nM | COc1ccc2ccc(S(=O)(=O)NC(CCCN=C(N)N)C(=O)N3CCCCC3C(=O)O)cc2c1 (stereo unspecified)
62 | 150 nM | COc1ccc2ccc(S(=O)(=O)NC(CCCN=C(N)N)C(=O)N3CCC(C)CC3C(=O)O)cc2c1 (stereo unspecified)
63 | 2000 nM | CN(C)c1cccc2c(S(=O)(=O)NC(CCCN=C(N)N)C(=O)N(CC(=O)O)CC3CCCO3)cccc12 (stereo unspecified)
64 | 5000 nM | COCCN(C(=O)C(CCCN=C(N)N)NS(=O)(=O)c1ccc2cc(OC)c(OC)cc2c1)C(C)C(=O)O (stereo unspecified)
65 | 300 nM | CCCCN(CC(=O)O)C(=O)C(CCCN=C(N)N)NS(=O)(=O)c1ccc2cc(OC)c(OC)cc2c1 (stereo unspecified)
66 | 500 nM | CC(C)C1CCN(C(=O)C(CCCN=C(N)N)NS(=O)(=O)c2ccc3cc(Cl)ccc3c2)C(C(=O)O)C1 (stereo unspecified)
67 | 2500 nM | COCCN(CC(=O)O)C(=O)C(CCCN=C(N)N)NS(=O)(=O)c1cccc2c(OC)cccc12 (stereo unspecified)
68 | 100 nM | Cc1ccc2ccc(S(=O)(=O)NC(CCCN=C(N)N)C(=O)N3CCC(C(C)C)CC3C(=O)O)cc2c1 (stereo unspecified)
69 | 5000 nM | COCCN(CC(=O)O)C(=O)C(CCCN=C(N)N)NS(=O)(=O)c1cccc2c(N(C)C)cccc12 (stereo unspecified)
70 | 150 nM | COc1ccc2ccc(S(=O)(=O)NC(CCCN=C(N)N)C(=O)N3CCC(C(C)C)CC3C(=O)O)cc2c1 (stereo unspecified)
71 | 4000 nM | CCCCN(CC(=O)O)C(=O)C(CCCN=C(N)N)NS(=O)(=O)c1cccc2c(OC)cccc12 (stereo unspecified)
72 | 100 nM | CCC1CCN(C(=O)C(CCCN=C(N)N)NS(=O)(=O)c2ccc3ccc(OC)cc3c2)C(C(=O)O)C1 (stereo unspecified)
73 | 150 nM | COc1ccc2ccc(S(=O)(=O)NC(CCCN=C(N)N)C(=O)N(CC(=O)O)CC3CCCO3)cc2c1 (stereo unspecified)
74 | 150 nM | Cc1ccc2ccc(S(=O)(=O)NC(CCCN=C(N)N)C(=O)N3CCC(C)CC3C(=O)O)cc2c1 (stereo unspecified)
75 | 5000 nM | COc1cc2ccc(S(=O)(=O)NC(CCCN=C(N)N)C(=O)N(CC(=O)O)C3CCCCC3)cc2cc1OC (stereo unspecified)
76 | 3700 nM | COCCN(CCC(=O)O)C(=O)C(CCCN=C(N)N)NS(=O)(=O)c1ccc2cc(OC)c(OC)cc2c1 (stereo unspecified)
77 | 200 nM | Cc1ccc2ccc(S(=O)(=O)NC(CCCN=C(N)N)C(=O)N(CC(=O)O)CC3CCCO3)cc2c1 (stereo unspecified)
78 | 340 nM | COc1ccc2cc(S(=O)(=O)NC(CCCN=C(N)N)C(=O)N3CCC(C)CC3C(=O)O)cc(OC)c2c1 (stereo unspecified)
79 | 1000 nM | CC1CCN(C(=O)C(CCCN=C(N)N)NS(=O)(=O)c2cccc3ccccc23)C(C(=O)O)C1 (stereo unspecified)
80 | 300 nM | CCCCN(CC(=O)O)C(=O)C(CCCN=C(N)N)NS(=O)(=O)c1ccc2ccc(C)cc2c1 (stereo unspecified)
81 | 500 nM | CCCCN(CC(=O)O)C(=O)C(CCCN=C(N)N)NS(=O)(=O)c1ccc2cc(OC)ccc2c1 (stereo unspecified)
